Experimental data as given in ChEMBL document CHEMBL3507680, “University of Dundee, Gates Library screen for HepG2 cell viability”.

Experiment: Human HepG2 cell viability assay in 384 well format
Assay type: toxicity, cell-based
Set-up: dose 125 nL, time 70.5 hour; concentration not given beside the values
Settings: HepG2 cells, read-out: Inhibition

| Compound | cytotoxicity at 70.5 h [%] |
| --- | --- |
| Cc1n[nH]c(C)c1CC(=O)NCc1ccccc1Cl | 1.58 |
| COCCCNS(=O)(=O)c1ccc(N2CCCCS2(=O)=O)cc1 | -9.62 |
| COc1ccc(C2=NOC(C(=O)N3CCCc4ccccc43)C2)cc1 (centres undefined) | 8.49 |
| Cc1ccc(NC(=O)Nc2c[nH]c(=O)[nH]c2=O)c(Cl)c1 | -8.13 |
| CN1CC=C(c2noc(CCC(=O)N3CCc4ccccc43)n2)CC1 | -26.2 |
| CCOC(=O)CNC(=O)NCc1cc(C)n(-c2ccc(OC)cc2)c1C | -22.5 |
| COc1ccc(Cl)cc1Nc1nc(N)c(C(C)=O)s1 | -19.7 |
| COc1ccc(Nc2nc(N)c(C(C)=O)s2)cc1OC | -12.7 |
| CCCC(=O)n1ccn(S(=O)(=O)c2ccc(C)cc2)c1=O | -14.8 |
| Cc1ccc(S(=O)(=O)n2ccn(C(=O)COc3ccccc3)c2=O)cc1 | -9.68 |
| CCOC(=O)CNC(=O)NCc1cccn1Cc1ccccc1F | -2.5 |
| CCN1CCN(C(=O)CCn2cccc2)CC1 | -12.8 |
| COCCCNC(=O)Nc1ncc(-c2cccc(OC)c2)n1CCOC | -17.4 |
| COCCn1c(-c2cccc(OC)c2)cnc1NC(=O)NCC(C)C | -18.3 |
| Cc1ccc2snc(C(=O)N3CCN(C(=O)NCCC(C)C)CC3)c2c1 | -6.08 |
| COCCNC(=O)N1CCN(C(=O)c2nsc3ccc(C)cc23)CC1 | -17.5 |
| CN1CCN(S(=O)(=O)c2cccc(F)c2)c2ccccc21 | 11.9 |
| COC(=O)c1cccc(C(=O)NCc2ccc(C)o2)n1 | -18.5 |
| CCN(CC)c1nc2ccsc2c(=O)n1CCC(=O)NCc1ccco1 | 12.3 |
| COc1ccccc1NC(=O)N1CCCC1c1ccco1 (centres undefined) | -0.874 |
| Cc1cc(=O)n2nc(CNc3cc(Cl)ccc3C)nc2[nH]1 | -9.92 |
| CCC(=O)NC(c1cccnc1)c1cc(C)ccc1C (centres undefined) | -12.3 |

| Compound | cytotoxicity at 70.5 h [%] |
| --- | --- |
| Cc1ccccc1NC(=O)Nc1c[nH]c(=O)[nH]c1=O | -9.84 |
| CC1CCN(c2ccc(NC(=O)CCn3cccn3)cc2)CC1 | -9.93 |
| COc1ccc(NC(=O)c2cnc(N3CCN(C)CC3)nc2C)cc1 | -6.31 |
| CCC1CN(CC(=O)NCCN2CCCCCC2)c2ccccc2S1 (centres undefined) | -1.59 |
| CCC1CN(CC(=O)NCCN2CCCC2)c2ccccc2S1 (centres undefined) | -2.98 |
| COc1cccc(CN2CCCCCC2c2cccc(F)c2)c1O (centres undefined) | -1.29 |
| Cc1nn(C)c2c(=O)n(CC(=O)NCCN3CCCCCC3)ccc12 | -4.19 |
| O=C(Cn1ccc2sccc2c1=O)NC1CCCCC1 | -9.58 |
| CCCNC(=O)CCC(=O)n1nc(C)c2ccccc21 | 1.02 |
| CCCNC(=O)C1CCCN(c2ccc3nncn3n2)C1 (centres undefined) | -4.72 |
| CCN(CC)CCNC(=O)c1ccc(-n2ccc3ccccc32)s1 | 1.6 |
| O=C(NCCCN1CCCC1=O)c1ccc(-n2ccc3ccccc32)s1 | 1.6 |
| CCOc1nc2cnccc2n(CC(=O)NCCc2ccccc2)c1=O | 28.7 |
| COc1ccc(NC(=O)c2nc3ccccc3n(C)c2=O)cc1OC | 29.1 |
| COc1cc(NC(=O)c2nc3ccccc3n(C)c2=O)cc(OC)c1 | -14.2 |
| COc1ccc(C2CCCCCN2Cc2cn(C)nc2C)cc1 (centres undefined) | -3.41 |
| Cc1nn(C)cc1CN1CCCCCC1c1ccccc1Cl (centres undefined) | 17.7 |
| O=C(C1CCN(S(=O)(=O)N2CCCC2)CC1)N1CCC2(CC1)OCCO2 | -7.18 |
| CCOC(=O)C(C)NC(=O)N1CCN(c2nc3ccccc3n2C)CC1 (centres undefined) | -2.33 |
| CCS(=O)(=O)N1CCc2ccc(NC(=O)NC(C)(C)C)cc21 | -13.6 |
| CCS(=O)(=O)N1CCc2ccc(NC(=O)Nc3cccc(F)c3)cc21 | 33 |
| CCn1nc(C)c2ccn(CC(=O)NC(C)C)c(=O)c21 | -2.74 |

| Compound | cytotoxicity at 70.5 h [%] |
| --- | --- |
| COCCN1CC2(CCN(Cc3ccco3)CC2)c2ccccc21 | 4.26 |
| COCC(=O)NCC1Cn2nnc(-c3ccoc3)c2CO1 (centres undefined) | -6.95 |
| COc1ccc(C(=O)N2CCO[C@H]3[C@@H](OCC4CC4)CC[C@@H]32)cc1F | -2.05 |
| CS(=O)(=O)N1C[C@@H](C(=O)Nc2cnccn2)C[C@H]2OCC[C@H]21 | -7.68 |
| CCN(CC)C(=O)c1nc2c(s1)CCN(C(=O)CCC(=O)OC)CC2 | 3.92 |
| COC(=O)CCC(=O)N1CCc2nc(C(=O)N3CCCCC3)sc2CC1 | -1.33 |
| CCCS(=O)(=O)N1CCc2nc(N3CCOCC3)nc(N(C)C)c2C1 | 26.5 |
| O=C(CC1CC1)N1CCCn2c(nnc2Cn2cccc2)C1 | -4.38 |
| COc1cc(N2C[C@H]3CN(CCN4CCCC4)C(=O)[C@H]3C2)ncn1 | -7.36 |
| O=C(Nc1cnccn1)[C@H]1C[C@H]2OCC[C@H]2N(c2ncc(F)cn2)C1 | -11.1 |
| CCn1cc2c(n1)C(COCC1CC1)CN(C(=O)c1cc(C)on1)C2 (centres undefined) | -10.4 |
| O=C([C@H]1COC[C@H]2CN(CC3CCC3)C[C@H]21)N1CCOCC1 | -6.01 |
| O=C([C@@H]1COC[C@H]2CN(CC3CCCC3)C[C@H]21)N1CCOCC1 | -7.37 |
| COc1ccc(C(=O)N2CCO[C@H]3[C@H](OCC4CC4)CC[C@@H]32)cc1F | -12.7 |
| O=C(Cc1cccs1)NCC1Cn2nnc(-c3ccoc3)c2CO1 (centres undefined) | -5.7 |
| CCS(=O)(=O)N1CCc2nc(N3CCOCC3)nc(N(C)C)c2CC1 | -7.6 |
| CCOCC1CC2(CCN(C(=O)CC3=CCCCC3)CC2)CO1 (centres undefined) | 1.88 |
| CC(=O)NCC(=O)N1Cc2cc(C#N)ccc2C1c1cnco1 (centres undefined) | 25.2 |
| COc1ncnc2c1CCN(C(=O)Cc1cccc(F)c1)CC2 | -3.34 |
| N#Cc1ccc2c(c1)CN(C(=O)C1CC=CC1)C2c1cnco1 (centres undefined) | -6.37 |
| Cc1cnc(N2CCC3(CC2)CCN(c2cncnc2)C3=O)nc1 | 8.5 |
| CCN(C)C(=O)c1cc(-c2ccn(C(C)C)n2)n2ccccc12 | -3.51 |

| Compound | cytotoxicity at 70.5 h [%] |
| --- | --- |
| O=C(NCc1cccs1)c1nc2c(o1)CN(c1ncccn1)C2 | -6.55 |
| O=C(c1cnccn1)N1CCC2(CC1)C(=O)NCC2c1ccccc1 (centres undefined) | -6.72 |
| CN(C)CCNC(=O)c1nc2c(o1)CN(c1ncccn1)C2 | -3.63 |
| Cc1ccc(N2CCC3(CCC(=O)N3)CC2)nn1 | -10 |
| CN1C(=O)CC2(CCN(S(=O)(=O)C3CC3)CC2)c2ccccc21 | 7.41 |
| COCC1CN(C(=O)Cc2ccccn2)Cc2ncn(C)c21 (centres undefined) | -2.47 |
| O=C(NCc1cccnc1)C1=NOC2(CCN(C3CCOCC3)C2)C1 (centres undefined) | -11.3 |
| CC(C)N(C)C(=O)C1=NOC2(CCN(C(=O)NCc3cccnc3)C2)C1 (centres undefined) | -9.91 |
| CCOCC1CN(C(=O)c2ccoc2)Cc2nn(C)cc21 (centres undefined) | -6.29 |
| O=C([C@@H]1CC[C@@H]2[C@@H](CCN2Cc2ccncc2)O1)N1CCCCO1 | -6.89 |
| COCC(=O)N1CCC2(CC1)NC(=O)c1ccccc12 | 31.8 |
| CCCN(CC(=O)N1CCNCC1)C(=O)c1cccc(Cl)c1 | -15.8 |
| CC(C)OCCCN(CC(=O)N1CCNCC1)C(=O)c1ccc(F)cc1 | 19.8 |
| CC[C@H]1N(CC2CCOCC2)CCC[C@]12CCC(=O)N2 | -3.56 |
| Cc1noc(C)c1CN1CCC2(CC1)CC(Oc1cccnc1)CO2 (centres undefined) | 1.43 |
| Cc1nnc(N2C[C@@H]3CCCO[C@@H]3[C@H](N3CCCC3=O)C2)s1 | -9.55 |
| O=C(C1CCCO1)N1CCCn2c(nnc2Cn2ccnc2)C1 (centres undefined) | -7.67 |
| Cc1ccc(CN2CCC3(CCC3NS(=O)(=O)c3ccccc3)CC2)o1 (centres undefined) | 8.23 |
| N#Cc1ccc(N2CCC3(CC2)COCCN3Cc2cccnc2)cc1 | -4.74 |
| O=C(NC1CCCC1)N1CC[C@H]2[C@H]1CCN2c1nncs1 | 36.5 |
| COc1ccccc1OCC(=O)N1C[C@@H]2CN(C)CCO[C@@H]2C1 | 32.3 |
| COCCN1CCO[C@@H]2CN(C(=O)COc3ccc(C)cc3)C[C@@H]2C1 | -8.74 |

| Compound | cytotoxicity at 70.5 h [%] |
| --- | --- |
| Cc1ccc(CN2CC[C@@H](O)[C@@H]2Cc2ccccc2)o1 | 34 |
| Cn1cncc1CNC1CC2(CCN(S(C)(=O)=O)CC2)c2ccccc21 (centres undefined) | -2.27 |
| O=C(c1cccnc1)N1C[C@@H](c2ccccc2)[C@@]2(CCNC2=O)C1 | 7.29 |
| CCN1CCC2(CC1)CC(NC(=O)c1ccnnc1)c1ccccc12 (centres undefined) | 7.06 |
| CO[C@@H]1CCN(Cc2ccc(C)o2)[C@H]1Cc1ccccc1 | -1.2 |
| Cc1cc(CN2C[C@@H](C)[C@@]3(CCN(C)C3=O)C2)oc1C | -5.99 |
| Cc1ccc(N2CCN(Cc3ccccc3)C3(CCNCC3)C2=O)cn1 | -4.83 |
| CC(C)NC(=O)C1c2c(ncn2C(C)C)CCN1Cc1ccccc1 (centres undefined) | -3.52 |
| O=C([C@H]1CC[C@@H]2[C@@H](CCN2Cc2ccsc2)O1)N1CCOCC1 | -6.53 |
| c1cnc(N2CCCC3(COCCN(CC4CC4)C3)C2)nc1 (centres undefined) | -10 |
| Cn1cc(C(=O)N[C@H]2CN(Cc3nccs3)[C@@H]3CCCO[C@H]23)cn1 | -8.57 |
| COc1ncccc1CN1CCC2(CCCN2S(C)(=O)=O)CC1 | -7.14 |
| COc1ncccc1CN1CCC2(CC1)COCCN2C | -8.7 |
| Cc1noc(C)c1CN1CCC2(CC1)CC(Oc1cccnc1)C2 | -9.29 |
| COCCN1CCO[C@@H]2CN(Cc3cc(OC)cc(OC)c3)C[C@@H]2C1 | 36.9 |
| CN1CCN(Cc2ccncc2)C(=O)C12CCN(c1nccs1)CC2 | -2.86 |
| CN1CCN(C(=O)[C@H]2CC[C@@H]3[C@@H](CCN3Cc3ccsc3)O2)CC1 | -6.96 |
| Cc1cnc(N2CCN3C[C@H](OCc4cccc(C)n4)C[C@H]3C2)nc1 | 0.481 |
| COCCN1CCO[C@@H]2CN(Cc3ccccn3)C[C@@H]2C1 | 2.26 |
| c1cncc(CN2CCCC3(COCCN(c4cnccn4)C3)C2)c1 (centres undefined) | -5.18 |
| N#Cc1ccc(N2CC3(CCN(c4nccs4)C3)C2)nc1 | 5.37 |
